Here are results for 15 compounds from US20090012061A1, “A Method of Treating Cancer” (priority 2004, published 2009).

The IC50 is the concentration that gives 50% inhibition.

Structures are written as SMILES. Values joined by “and” are separate entries in the source; they are usually repeats but may differ in a detail not shown here. Equal values may be shown once. Read-outs that look alike come from different tables or passages of the source.

The target of test [1] is T1, human KSP motor domain (KSP(367H)) (Homo sapiens, UniProt P52732).
T1 construct: were used to amplify the motor domain and the neck linker region; made in house; host or cells: E. coli BL21 (DE3), pRSETa
T1 sequence (P52732 18-359 limits assumed): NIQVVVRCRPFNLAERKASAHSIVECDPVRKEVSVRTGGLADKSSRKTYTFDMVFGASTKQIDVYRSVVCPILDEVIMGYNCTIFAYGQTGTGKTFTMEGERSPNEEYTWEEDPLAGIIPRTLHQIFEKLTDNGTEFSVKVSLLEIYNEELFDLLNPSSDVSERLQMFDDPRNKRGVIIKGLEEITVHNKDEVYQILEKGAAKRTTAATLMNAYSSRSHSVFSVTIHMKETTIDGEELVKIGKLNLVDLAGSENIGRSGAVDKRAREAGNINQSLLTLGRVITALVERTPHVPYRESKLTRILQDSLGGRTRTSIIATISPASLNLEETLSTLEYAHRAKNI
The test is described as follows: Substrate competitive profile by Michaelis-Menton analysis with the KSP ATPase assay. Format: biochemical. As to conditions: for Competitive with ATP?: ATP varied between 4 μM and 500 μM, in the presence of 2 μM of microtubules; for Competitive with MT?: microtubules varied between 0.01 μM and 5 μM, in the presence of 1 mM of ATP. Here is the method:
(§1) The kinesin motor domain (20 nM) is incubated with microtubules, ATP (1 mM 1:1 MgCl2: Na-ATP), and compound at 23° C. in buffer containing 80 mM K-HEPES (pH 7.0), 1 mM EGTA, 1 mM DTT, 1 mM MgCl2, and 50 mM KCl. The reaction is terminated by a 2-10 fold dilution with a final buffer composition of 80 mM HEPES and 50 mM EDTA (or, alternately, with a 1:1 addition of reaction volume to stop buffer(1.8M KCl and 50 mM EDTA)). Free phosphate from the ATP hydrolysis reaction is measured via a quinaldine red/ammonium molybdate assay by adding a 1.5 times volume of quench C (e.g., to a mixture of […] reaction volume+40 μl stop buffer is then added 120 μl quench C). Quench A contains 0.1 mg/ml quinaldine red and 0.14% polyvinyl alcohol; quench B contains 12.3 mM ammonium molybdate tetrahydrate in 1.15 M sulfuric acid. Quench C is a 2:1 ratio of quench A:quench B The reaction is incubated for 5-10 minutes at 23° C., and the absorbance of the phospho-molybdate complex is measured at 540 nm.
The in vitro substrate competitive profiles of the compounds described in Table 1 below were determined using a Michaelis-Menton analysis with the assay described above, but varying assay concentrations of one of the substrates (ATP or microtubule) in the presence of excess of the second substrate. Thus, the concentration of ATP was varied between 4 μM and 500 μM, in the presence of 2 μM of microtubules. And the concentration of microtubules was varied between 0.01 μM and 5 μM, in the presence of 1 mM of ATP.

Test [2] addresses T1, human KSP motor domain (KSP(367H)). In words: Kinesin ATPase in vitro assay (KSP ATPase, quinaldine red/ammonium molybdate phosphate detection). Format: biochemical.
Description: Plasmids for the expression of the human KSP motor domain construct were cloned by PCR using a pBluescript full length human KSP construct (Blangy et al., Cell, vol. 83, pp 1159-1169, 1995) as a template. The N-terminal primer 5′-[…] (SEQ.ID.NO.: 1) and the C-terminal primer 5′-[…] […] (SEQ.ID.NO.: 2) were used to amplify the motor domain and the neck linker region. The PCR products were digested with AseI and XhoI, ligated into the NdeI/XhoI digestion product of pRSETa (Invitrogen) and transformed into E. coli BL21 (DE3).
Cells were grown at 37° C. to an OD600 of 0.5. After cooling the culture to room temperature expression of KSP was induced with 100 μM IPTG and incubation was continued overnight. Cells were pelleted by centrifugation and washed once with ice-cold PBS. Pellets were flash-frozen and stored −80° C.
Cell pellets were thawed on ice and resuspended in lysis buffer (50 mM K-HEPES, pH 8.0, 250 mM KCl, 0.1% Tween, 10 mM imidazole, 0.5 mM Mg-ATP, 1 mM PMSF, 2 mM benzimidine, 1× complete protease inhibitor cocktail (Roche)). Cell suspensions were incubated with 1 mg/ml lysozyme and 5 mM β-mercaptoethanol on ice for 10 minutes, followed by sonication (3×30 sec). All subsequent procedures were performed at 4° C. Lysates were centrifuged at 40,000×g for 40 minutes. Supernatants were diluted and loaded onto an SP Sepharose column (Phamacia, 5 ml cartridge) in buffer A (50 mM K-HEPES, pH 6.8, 1 mM MgCl2, 1 mM EGTA, 10 μM Mg-ATP, 1 mM DTT) and eluted with a 0 to 750 mM KCl gradient in buffer A. Fractions containing KSP were pooled and incubated with Ni-NTA resin (Qiagen) for one hour. The resin was washed three times with buffer B (Lysis buffer minus PMSF and protease inhibitor cocktail), followed by three 15-minute incubations and washes with buffer B. Finally, the resin was incubated and washed for 15 minutes three times with buffer C (same as buffer B except for pH 6.0) and poured into a column. KSP was eluted with elution buffer (identical to buffer B except for 150 mM KCl and 250 mM imidazole). KSP-containing fractions were pooled, made 10% in sucrose, and stored at −80° C.
Microtubules are prepared from tubulin isolated from bovine brain. Purified tubulin (>97% MAP-free) at 1 mg/ml is polymerized at 37° C. in the presence of 10 μM paclitaxel, 1 mM DTT, 1 mM GTP in BRB80 buffer (80 mM K-PIPES, 1 mM EGTA, 1 mM MgCl2 at pH 6.8). The resulting microtubules are separated from non-polymerized tubulin by ultracentrifugation and removal of the supernatant. The pellet, containing the microtubules, is gently resuspended in 10 μM paclitaxel, 1 mM DTT, 50 μg/ml ampicillin, and 5 μg/ml chloramphenicol in BRB80.
as §1
In order to identify compounds useful in the methods of the instant invention, the assay described above was then performed in the presence (0.5 μM) and absence of microtubules. Compounds that are commercially available are noted by the source and catalog number.

[3] abbreviates: Table 1, kinesin motor domain 20 nM, with microtubules, 1 mM ATP, 23° C., read-out: KSP ATPase IC50.
The mark [4] stands for this setting: Table 2, microtubules absent (basal), [MT] = 0 uM, standard KSP(ADP), read-out: KSP ATPase IC50 (nM) [MT] = 0 uM.
Setting [5] is: Table 2, microtubules present, [MT] = 0.5 uM, standard KSP(ADP), read-out: KSP ATPase IC50 (nM) [MT] = 0.5 uM.

Consider `O=C(Nc1nc2ccccc2s1)C(c1ccccc1)c1ccccc1` [Compound 2], for which, in test [1], the “Competitive with ATP?” value was “no”. In addition, the “Competitive with MT?” value in test [1] is on record as “no”. For the same compound, the IC50 in test [2] (setting [3]) was 1090 nM; in test [2] (setting [4]) it was > 50000 nM; in test [2] (setting [5]) it was 1400 nM and 2150 nM.
For `CCOC(=O)CSc1nc(C23CC4CC(CC(C4)C2)C3)ccc1C#N` [Compound 12], the “Competitive with ATP?” value in test [1] is reported as “no”. For the same compound, the values for the IC50 in test [2] (setting [3]), in test [2] (setting [4]) and in test [2] (setting [5]) were 556 nM, > 50000 nM and 1150 nM, respectively.
As to `O=C(Nc1ccc(Br)c(Cl)c1)C(c1ccccc1)c1ccccc1` [Compound 9], the “Competitive with ATP?” value in test [1] is “no”. Also, the “Competitive with MT?” value in test [1] is reported as “no”. The IC50 in test [2] (setting [3]) is 692 nM; in test [2] (setting [4]), > 50000 nM; in test [2] (setting [5]) it was 647 nM.
For `CC(C)(C)c1cccc(NC(=O)Nc2ccc3ccc(O)cc3c2)c1` [Compound 6, N-(3-tert-butylphenyl)-N-(7-hydroxy-2-naphthyl)urea], the “Competitive with ATP?” value in test [1] is given as “no”. Besides, the “Competitive with MT?” value in test [1] is given as “no”. Further, the IC50 was 1900 nM in test [2] (setting [3]), > 50000 nM in test [2] (setting [4]) and 2780 nM in test [2] (setting [5]).
As to `O=C(NC(C(=O)c1ccccc1)c1ccccc1)OCc1ccccc1` (centres unmarked) [Compound 3, N-(2-Oxo-1,2-diphenyl-ethyl)-carbamic acid benzyl ester], the “Competitive with ATP?” value in test [1] is recorded as “no”. Besides, the “Competitive with MT?” value in test [1] is reported as “no”. In addition, the IC50 in test [2] (setting [3]) was 2360 nM; in test [2] (setting [4]), > 50000 nM; in test [2] (setting [5]), 4050 nM and 2940 nM.
On to `CC(C)(C)c1ccc2[nH]c3c(c2c1)CCCC3=O` [Compound 1], for which the “Competitive with ATP?” value in test [1] is “no”. Besides, the “Competitive with MT?” value in test [1] is given as “no”. Further, the IC50 is 597 nM in test [2] (setting [3]); > 50000 nM in test [2] (setting [4]); 619 nM and 685 nM in test [2] (setting [5]).
Take `C=CCNC(=O)c1cc(-c2ccc(Cl)cc2)n(-c2cc(Cl)ccc2Cl)n1` [Compound 8]: in test [1], the “Competitive with ATP?” value was “no”. Besides, the “Competitive with MT?” value in test [1] is “no”. The IC50 in test [2] (setting [3]) was 5040 nM; in test [2] (setting [4]) it was > 50000 nM; in test [2] (setting [5]), 3100 nM and 5540 nM.
As to `Cc1cc2ncn(CC(O)COc3ccc(I)cc3)c2cc1C` (centres unmarked) [Compound 10], in test [1], the “Competitive with ATP?” value is “no”. Further, in test [1], the “Competitive with MT?” value was “no”. For the same compound, the IC50 in test [2] (setting [3]) is 4750 nM; in test [2] (setting [4]), > 50000 nM; in test [2] (setting [5]) it was 5040 nM.
For the compound `Cc1nn(C(=S)NCc2ccccc2)c2c1[C@H]1[C@@H](C2)C1(C)C` [Compound 11], the “Competitive with ATP?” value in test [1] is “no”. Further, in test [1], the “Competitive with MT?” value is on record as “no”. Moreover, the IC50 was 1230 nM in test [2] (setting [3]); > 50000 nM in test [2] (setting [4]); 1820 nM and 1360 nM in test [2] (setting [5]).
As to `CSc1ccc(C(=O)N2CCCN(CC(=O)Nc3ccc(F)cc3)CC2)s1` [Compound 15], the “Competitive with ATP?” value in test [1] was “no”. The “Competitive with MT?” value in test [1] is “no”. Also, the IC50 in test [2] (setting [3]) was 7020 nM and 6750 nM; in test [2] (setting [4]), > 50000 nM; in test [2] (setting [5]) it was 8880 nM.
Consider `CCN1C(=O)C(O)(c2ccccc2)c2cc(Br)ccc21` (centres unmarked) [Compound 14], for which the “Competitive with ATP?” value in test [1] is “no”. Also, in test [1], the “Competitive with MT?” value is reported as “no”. In addition, the IC50 is > 50000 nM in test [2] (KSP ATPase IC50 (nM) [MT] = 0 uM, Table 2, microtubules absent (basal), [MT] = 0 uM, standard KSP(ADP)); 8920 nM and 4600 nM in test [2] (KSP ATPase IC50 (nM) [MT] = 0.5 uM, Table 2, microtubules present, [MT] = 0.5 uM, standard KSP(ADP)); 3920 nM in test [2] (KSP ATPase IC50 (nM), Table 1, kinesin motor domain 20 nM, with microtubules, 1 mM ATP, 23° C.).
Turning to `CCCc1cc(N)c2cc(NC(=O)c3ccc(Oc4ccc(Cl)cc4)cc3)ccc2n1` [Compound 4], the “Competitive with ATP?” value in test [1] is reported as “no”. For the same compound, the “Competitive with MT?” value in test [1] is listed as “no”. Further, the half-maximal inhibitory concentration (IC50) in test [2] (setting [3]) was 3230 nM; in test [2] (setting [4]), > 50000 nM; in test [2] (setting [5]), 2550 nM and 3430 nM.
Consider `Cc1ccc(NC(=O)C(c2ccccc2)c2ccccc2)cc1[N+](=O)[O-]` [Compound 7], for which the “Competitive with ATP?” value in test [1] is on record as “no”. Further, the “Competitive with MT?” value in test [1] was “no”. Moreover, the 50% inhibitory concentration (IC50) in test [2] (setting [3]) was 3850 nM; in test [2] (setting [4]) it was > 50000 nM; in test [2] (setting [5]), 3690 nM and 6290 nM.
Consider `Oc1cccc(CC2(Cc3cccc(O)c3)Cc3ccccc3C2)c1` [Compound 5], for which the “Competitive with ATP?” value in test [1] is listed as “no”. Further, in test [1], the “Competitive with MT?” value is given as “no”. The IC50 is 5870 nM in test [2] (setting [3]), > 50000 nM in test [2] (setting [4]) and 7740 nM in test [2] (setting [5]).
Consider `O=C(c1cc([N+](=O)[O-])ccc1Cl)N1c2ccccc2Sc2ccccc21` [Compound 13], for which the “Competitive with ATP?” value in test [1] was “no”. Besides, the “Competitive with MT?” value in test [1] is “no”. In addition, the IC50 in test [2] (setting [3]) was 864 nM; in test [2] (setting [4]), > 50000 nM; in test [2] (setting [5]), 2530 nM and 4520 nM.
